Values of other authors as cited in patent US20020068365A1, “CONTROLLED RELEASE NITRIC OXIDE PRODUCING AGENTS” (priority 1998, published 2002).

Experiments:
[1] = L-arginine free base
[2] = 30 grams of L-arginine as an infusion

In the case of N=C(N)NCCC[C@H](N)C(=O)O [L-arginine], the pH range [1] is listed as 10.5-12.0 and the “rise of circulating levels of L-arginine compared to baseline levels” value [2] is listed as “up to 100 fold”.
